Data reported in ChEMBL document CHEMBL1201862, “PubChem BioAssay data set” (2004).
Several values for one entry are separate records, joined by “and”; a condition that tells them apart may be missing. Identical values can stand only once.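 Grown in 96-well plates, cells were treated for 48 hours with each compound at five concentrations. Insufficient inhibition: endpoint recorded as highest concentration tested. GI50 marks 50% less growth.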 Activity calls are given as the source filed them. No stated cut-off is given here; in the data, active = GI50 up to about 1.1 µM and inactive = higher.

What was measured:
Assay in all cases: NCI tumour cell line growth inhibition, 48 h
UACC-62 = tested on: UACC-62
KM12 = tested on: KM12
HT-29 = tested on: HT-29
HCT-15 = tested on: HCT-15
M14 = tested on: M14
OVCAR-3 = tested on: OVCAR-3
OVCAR-5 = tested on: OVCAR-5
786-0 = tested on: 786-0
UACC-257 = tested on: UACC-257
SK-MEL-28 = tested on: SK-MEL-28
RXF 393 = tested on: RXF 393
UO-31 = tested on: UO-31
EKVX = tested on: EKVX
SNB-75 = tested on: SNB-75
COLO 205 = tested on: COLO 205
A498 = tested on: A498
HCC 2998 = tested on: HCC 2998
MDA-MB-435 = tested on: MDA-MB-435
K562 = tested on: K562
MCF7 = tested on: MCF7
RPMI-8226 = tested on: RPMI-8226
NCI-H460 = tested on: NCI-H460
TK-10 = tested on: TK-10
SNB-19 = tested on: SNB-19
MDA-N = tested on: MDA-N
SK-OV-3 = tested on: SK-OV-3
SN12C = tested on: SN12C
HOP-92 = tested on: HOP-92
OVCAR-8 = tested on: OVCAR-8
IGROV-1 = tested on: IGROV-1
Hs-578T = tested on: Hs-578T
LOX IMVI = tested on: LOX IMVI
MOLT-4 = tested on: MOLT-4
DU-145 = tested on: DU-145
PC-3 = tested on: PC-3
SF-539 = tested on: SF-539
T47D = tested on: T47D
SK-MEL-5 = tested on: SK-MEL-5
HOP-62 = tested on: HOP-62
U-251 = tested on: U-251
HL-60 = tested on: HL-60
MDA-MB-231 = tested on: MDA-MB-231
NCI-H23 = tested on: NCI-H23
OVCAR-4 = tested on: OVCAR-4
CAKI-1 = tested on: CAKI-1
Malme-3M = tested on: Malme-3M
SK-MEL-2 = tested on: SK-MEL-2
NCI/ADR-RES = tested on: NCI/ADR-RES
SF-268 = tested on: SF-268
NCI-H226 = tested on: NCI-H226
CCRF-CEM = tested on: CCRF-CEM
A549 = tested on: A549
ACHN = tested on: ACHN
HCT-116 = tested on: HCT-116
SR = tested on: SR
SF-295 = tested on: SF-295
SW-620 = tested on: SW-620
NCI-H522 = tested on: NCI-H522

SMILES: Cc1ccc(-c2cc(-c3ccco3)c(C#N)c(=S)n2C2OC(CO)C(O)C(O)C2O)cc1 (centres undefined)
- GI50 (UACC-62): 2.23 µM (inactive) and 2.48 µM (inactive)
- GI50 (KM12): 17.2 µM (inactive) and 30.1 µM (inactive)
- GI50 (HT-29): 34.9 µM (inactive) and 34 µM (inactive)
- GI50 (HCT-15): 94.6 µM and 49.2 µM
- GI50 (M14): 17.7 µM (inactive) and 30.3 µM (inactive)
- GI50 (OVCAR-3): 21.4 µM (inactive) and 35.6 µM (inactive)
- GI50 (OVCAR-5): 45.7 µM (inactive) and 39.5 µM (inactive)
- GI50 (786-0): 36.6 µM (inactive) and 56.8 µM (inactive)
- GI50 (UACC-257): 53.8 µM (inactive) and 45.3 µM (inactive)
- GI50 (SK-MEL-28): 52.2 µM (inactive) and 41 µM (inactive)
- GI50 (RXF 393): 18.6 µM (inactive) and 18.9 µM (inactive)
- GI50 (UO-31): 18.5 µM (inactive) and 31.7 µM (inactive)
- GI50 (EKVX): > 100 µM (inactive) and 95.9 µM (inactive)
- GI50 (SNB-75): 66.4 µM (inactive) and 60.5 µM (inactive)
- GI50 (COLO 205): 27.2 µM (inactive) and 35.1 µM (inactive)
- GI50 (A498): 41 µM (inactive) and 28.2 µM (inactive)
- GI50 (HCC 2998): > 100 µM (inactive)
- GI50 (MDA-MB-435): 43.2 µM (inactive) and 38.9 µM (inactive)
- GI50 (K562): 39 µM (inactive)
- GI50 (MCF7): 27.9 µM (inactive) and 49 µM (inactive)
- GI50 (RPMI-8226): 4.46 µM (inactive) and 6.04 µM (inactive)
- GI50 (NCI-H460): 28 µM (inactive) and 36.6 µM (inactive)
- GI50 (TK-10): 67.8 µM (inactive) and 54.5 µM (inactive)
- GI50 (SNB-19): 36.1 µM (inactive) and 68.9 µM (inactive)
- GI50 (MDA-N): 30.4 µM (inactive) and 34.4 µM (inactive)

SMILES: CCOC(=O)C1=C(N2CCCC2)NC(=O)CC1=O
- GI50 (SK-OV-3): > 100 µM (inactive)
- GI50 (SN12C): > 100 µM (inactive)
- GI50 (UACC-62): > 100 µM (inactive)
- GI50 (KM12): > 100 µM (inactive)
- GI50 (HT-29): > 100 µM (inactive)
- GI50 (HOP-92): > 100 µM (inactive)
- GI50 (OVCAR-8): > 100 µM (inactive)
- GI50 (IGROV-1): > 100 µM (inactive)
- GI50 (HCT-15): > 100 µM
- GI50 (Hs-578T): > 100 µM (inactive)
- GI50 (LOX IMVI): > 100 µM (inactive)
- GI50 (MOLT-4): > 100 µM (inactive)
- GI50 (M14): > 100 µM (inactive)
- GI50 (DU-145): > 100 µM (inactive)
- GI50 (PC-3): > 100 µM (inactive)
- GI50 (OVCAR-3): > 100 µM (inactive)
- GI50 (SF-539): > 100 µM (inactive)
- GI50 (OVCAR-5): > 100 µM (inactive)
- GI50 (786-0): > 100 µM (inactive)
- GI50 (UACC-257): > 100 µM (inactive)
- GI50 (SK-MEL-28): > 100 µM (inactive)
- GI50 (RXF 393): > 100 µM (inactive)
- GI50 (UO-31): > 100 µM (inactive)
- GI50 (T47D): 63 µM (inactive)
- GI50 (EKVX): > 100 µM (inactive)
- GI50 (SK-MEL-5): > 100 µM (inactive)
- GI50 (HOP-62): > 100 µM (inactive)
- GI50 (U-251): > 100 µM (inactive)
- GI50 (COLO 205): > 100 µM (inactive)
- GI50 (HL-60): > 100 µM (inactive)
- GI50 (A498): > 100 µM (inactive)
- GI50 (MDA-MB-231): > 100 µM (inactive)
- GI50 (HCC 2998): > 100 µM (inactive)
- GI50 (NCI-H23): > 100 µM (inactive)
- GI50 (OVCAR-4): > 100 µM (inactive)
- GI50 (MDA-MB-435): > 100 µM (inactive)
- GI50 (CAKI-1): > 100 µM (inactive)
- GI50 (Malme-3M): > 100 µM (inactive)
- GI50 (SK-MEL-2): > 100 µM (inactive)
- GI50 (NCI/ADR-RES): > 100 µM (inactive)
- GI50 (SF-268): > 100 µM (inactive)
- GI50 (K562): > 100 µM (inactive)
- GI50 (NCI-H226): > 100 µM (inactive)
- GI50 (CCRF-CEM): > 100 µM (inactive)
- GI50 (RPMI-8226): > 100 µM (inactive)
- GI50 (A549): > 100 µM (inactive)
- GI50 (ACHN): > 100 µM (inactive)
- GI50 (TK-10): > 100 µM (inactive)
- GI50 (HCT-116): > 100 µM (inactive)
- GI50 (SR): > 100 µM (inactive)
- GI50 (SF-295): > 100 µM (inactive)
- GI50 (SW-620): > 100 µM (inactive)
- GI50 (NCI-H522): > 100 µM (inactive)
- GI50 (SNB-19): > 100 µM (inactive)
- GI50 (MDA-N): > 100 µM (inactive)

SMILES: CC1OC(O[C@H]2/C=C/C=C/C=C/C=C/C=C/C=C/C=C/[C@H](C)[C@@H](O)[C@@H](C)[C@H](C)OC(=O)C[C@H](O)C[C@H](O)CC[C@@H](O)[C@H](O)C[C@H](O)C[C@]3(O)C[C@H](O)[C@@H](C(=O)O)[C@H](C2)O3)C(O)C(N)C1O (some centres undefined)
- GI50 (SK-OV-3): 37.3 µM (inactive)
- GI50 (KM12): 20.5 µM (inactive)
- GI50 (HT-29): 21.8 µM (inactive)
- GI50 (HOP-92): 32.2 µM (inactive)
- GI50 (IGROV-1): 10 µM (inactive)
- GI50 (Hs-578T): 9.25 µM (inactive)
- GI50 (PC-3): 16.3 µM (inactive)
- GI50 (OVCAR-3): 15.9 µM (inactive)
- GI50 (786-0): 4.4 µM (inactive)
- GI50 (RXF 393): 5.64 µM (inactive)
- GI50 (UO-31): 1.79 µM (inactive)
- GI50 (COLO 205): 24.3 µM (inactive)
- GI50 (HCC 2998): 28.5 µM (inactive)
- GI50 (OVCAR-4): 18.2 µM (inactive)
- GI50 (SK-MEL-2): 36.7 µM (inactive)
- GI50 (K562): 60.4 µM (inactive)
- GI50 (NCI-H226): > 100 µM (inactive)
- GI50 (MCF7): 20.5 µM (inactive)
- GI50 (CCRF-CEM): 6.15 µM (inactive)
- GI50 (HCT-116): 24.3 µM (inactive)
- GI50 (SR): 2.35 µM (inactive)
- GI50 (SW-620): 11.6 µM (inactive)
- GI50 (NCI-H522): 8.87 µM (inactive)
- GI50 (MDA-N): 7.69 µM (inactive)
